Assay results published in patent publication US20090075281A1, “MTBE GENES” (REGENTS OF THE UNIVERSITY OF CALIFORNIA, priority 2007, published 2009).

Key:
n-alkane grown GPo 1 = details: cited from earlier work
M. petroleiphilum PM1 [1] = test: PM1 growth in mineral salts medium (MSM) on a sole carbon source; type: cell-based, Methylibium petroleiphilum PM1; details: for doubling time of PM1 cells, t1/2: cells growing on the substance as sole carbon source; for concentration up to which PM1 is capable of growth: on MSM
PM1 = test: MTBE degradation kinetics by PM1; type: cell-based, Methylibium petroleiphilum PM1
[2] = used to calculate solution-phase concentration; cited from earlier work
M. petroleiphilum PM1 [3] = test: PM1 tolerance of MTBE on tryptic soy broth media; type: cell-based, Methylibium petroleiphilum PM1

COC(C)(C)C [MTBE, methyl tert-butyl ether]
Ks values for MTBE (n-alkane grown GPo 1): 20 to 40 mM | doubling time of PM1 cells, t1/2 (M. petroleiphilum PM1 [1]): 15 h | concentration up to which PM1 is capable of growth (M. petroleiphilum PM1 [1]): up to 1000 mg/L | apparent half saturation constant for MTBE (PM1): 88 µM | dimensionless Henry's constant [2]: 0.023 | tolerated concentration (M. petroleiphilum PM1 [3]): up to 5,000 mg/L

CCO [ethanol]
doubling time of PM1 cells, t1/2 (M. petroleiphilum PM1 [1]): 6.1 h | concentration up to which PM1 is capable of growth (M. petroleiphilum PM1 [1]): up to 7.9 g/L
